US20090131449A1, “USE OF TRPV1 RECEPTOR ANTAGONISTS FOR TREATING DRY EYE AND OCULAR PAIN” (ALCON RESEARCH, LTD., priority 2007, published 2009)

What was measured:
[1] = tested on: Formalin-Induced Blink Response in Rats; test: formalin-induced blink response assay (ocular pain); format: in vivo, Sprague-Dawley rats; settings: rat; for Number of Blinks/1 min Mean ± S.D.: 20 μL topical ocular, 0.1% formalin challenge; for Number of Blinks/1 min Mean ± S.D. / % Inhibition of formalin-induced blink response: pretreatment 5 min; for % Inhibition of formalin-induced blink response: topical ocular; for inhibition of formalin-induced blink response (in words): highest concentration tested (1%)
Description: The effects of two transient receptor potential vanilloid receptor subfamily, member 1 (TRPV1) antagonists on ocular pain in rats were tested using a formalin-induced blink response assay. Sprague-Dawley rats were treated topical ocular with 20 μL of vehicle (maxidex vehicle), N-{4-[6-(4-trifluoromethyl-phenyl)-pyrimidin-4-yloxy]-benzothiazol-2-yl}-acetamide (AL-49975, also known as AMG-517, Amgen Inc., Thousand Oaks, Calif.), or (R)—N-(4-(6-(4-(1-(4-fluorophenyl)ethyl)piperazin-1-yl)pyrimidin-4-yloxy)benzo[d]thiazol-2-yl)acetamide (AL-49976, also known as AMG-628, Amgen Inc., Thousand Oaks, Calif.) to one eye only. After the appropriate pretreatment time of about 5 minutes, 5 μL of 0.1% formalin was applied topical ocular. Each rat was placed in a clear plastic box, and the number of blinks was counted for 1 minute immediately following the formalin challenge.

[2] = tested on: mechanical blink response in normal rats; test: corneal anesthetic activity, blinks induced by mechanical touch (Cochet-Bonnet Esthesiometer); format: in vivo, Sprague Dawley rats; settings: rat; for inhibition of mechanical blink response / topical anesthetic activity (in words): 1% concentration; for Total number of Blinks/Total number of Touches: 20 μl topical ocular, N = 6/group; for Total number of Blinks/Total number of Touches / % Blocked (mechanical blink response): pretreatment 5 min; for % Blocked (mechanical blink response): topical ocular
From the text: Corneal anesthetic effects of TRPV1 antagonists were examined by analyzing suppression of blinks induced by mechanical touch. A Cochet-Bonnet Esthesiometer was used to determine corneal anesthetic activities of the TRPV1 antagonist, AMG-517 (AL-49975), in normal rats. Male Sprague Dawley rats (˜500 g) were divided into groups of 6 each, restrained in a DecapiCone rat restraint, and secured at the posterior with tape. A hole was cut into the cone to expose the right eye. Twenty-four hours prior to the experiment the eyelashes and whiskers were trimmed with scissors. The right eye was dosed with 20 μl of drug or maxidex vehicle, and the timer was set for 5 minutes to allow the rat time to acclimate. The Cochet-Bonnet Esthesiometer fiber was set at 30 mm and perpendicularly touched by a masked observer to the center of the cornea 10 times with a 3 second delay between counts. Blinks were counted with each touch of the fiber, and a total score out of 10 was recorded. If more than one blink occurred in response to a single touch, this event was counted as one blink response.

[3] = 1% conc., *p < 0.05 Dunnett's t-test

Row | SMILES | Number of Blinks/1 min Mean ± S.D. ([1]; 0.01% conc.) [Blinks/1 min] | % Inhibition of formalin-induced blink response ([1]; 0.01% conc.) [%] | Number of Blinks/1 min Mean ± S.D. ([1]; 0.1% conc.) [Blinks/1 min] | % Inhibition of formalin-induced blink response ([1]; 0.1% conc.) [%] | Number of Blinks/1 min Mean ± S.D. ([1]; 1% conc.) [Blinks/1 min] | % Inhibition of formalin-induced blink response [1, 3] | inhibition of formalin-induced blink response (in words) [1] | inhibition of mechanical blink response / topical anesthetic activity (in words) [2] | inhibition of mechanical blink response / topical anesthetic activity (in words) ([2]; listed as AMG-517) | Total number of Blinks/Total number of Touches ([2]; 1%) | % Blocked (mechanical blink response) ([2]; 1%) [%] | Total number of Blinks/Total number of Touches ([2]; 0.5%) | % Blocked (mechanical blink response) ([2]; 0.5%, *p < 0.01 Chi-squared vs. vehicle) | % Blocked (mechanical blink response) ([2]; 0.5%, *p < 0.01 Chi-squared vs. vehicle, listed as proparacaine) [%]
1 | CC(=O)Nc1nc2c(Oc3cc(-c4ccc(C(F)(F)F)cc4)ncn3)cccc2s1 [AL-49975, N-{4-[6-(4-trifluoromethyl-phenyl)-pyrimidin-4-yloxy]-benzothiazol-2-yl}-acetamide] | 58 ± 11 | 20 | 51 ± 18 | 29 | 44 ± 17 | 39* % | dose-dependent fashion, achieving significant inhibition | did not significantly inhibit the blink response | did not have topical anesthetic activity | 54/60 | 10 | – | – | –
2 | CCCOc1ccc(C(=O)OCCN(CC)CC)cc1N [Alcaine, proparacaine, reference compound] | – | – | – | – | – | – | – | – | – | – | – | 2/60 | 97* % | 95
3 | CC(=O)Nc1nc2c(Oc3cc(N4CCN([C@H](C)c5ccc(F)cc5)CC4)ncn3)cccc2s1 [AL-49976, (R)—N-(4-(6-(4-(1-(4-fluorophenyl)ethyl)piperazin-1-yl)pyrimidin-4-yloxy)benzo[d]thiazol-2-yl)acetamide] | 58 ± 7 | 19 | 66 ± 23 | 9 | 47 ± 11 | 35* % | significantly inhibited the pain response | – | – | – | – | – | – | –
